Read-outs that look alike come from different tables or passages of the source.
Columns and labels:
Jurkat cell SOCE [1] = assay: Thapsigargin-induced SOCE in Jurkat cells, Indo-1 [Ca2+]cyt measurement; format: cell-based, human; conditions: for Ki: 1 µM thapsigargin 10 min, compound added 30 s prior to 1 mM CaCl2
Description: To visualize SOCE, we performed a classical protocol: Jurkat cells in Ca^2+-free HBS medium are stimulated by 1 µM thapsigargin (TG, black arrow, Figure 2A) during 600 s to allow the release of Ca^2+ ions by the ER, and the subsequent opening of the store-operated Ca^2+ channels (SOCC). Addition of 1 mM CaCl2 allowed for a massive entry of Ca^2+ ions through SOCC leading thus to an increase of the cytosolic calcium concentration ([Ca^2+]cyt). To test 2-APB and its analogues, different concentrations of compounds were added 30 s prior to Ca^2+ addition.
[Ca^2+]cyt was recorded by a fluorimetric ratio technique as previously described. Leukocytes were spun and resuspended at a density of 10^6 cells/mL in Hepes buffered saline (HBS; 135 mM NaCl, 5.9 mM KCl, 1.2 mM MgCl2, 11.6 mM Hepes, 11.5 mM glucose adjusted to pH 7.3 with NaOH). Due to the presence of 0.002% Ca^2+ in the NaCl, this HBS medium contained 0.1 mM of Ca^2+. Then, cells were incubated in the dark with 4 μM Indo-1-AM for one hour at room temperature under slow agitation. Cells were then centrifuged and resuspended in HBS medium before measurement. To perform the experiments, 0.5 to 1 × 10^6 cells were suspended in 2 mL HBS in a quartz cuvette and inserted into a spectrofluorophotometer (RF-1501 Shimadzu Corporation, Kyoto, Japan) connected to a PC computer (Dell Computer Corp., Montpellier, France). A temperature of 37°C was maintained by circulating water from a bath. Ultraviolet light of 360 nm was used for excitation of Indo-1, and emissions at 405 and 480 nm were recorded. Background and autofluorescence of the cell suspension were subtracted from the recordings. The maximum Indo-1 fluorescence (Rmax) was obtained by adding 1 µM ionomycin to the cell suspension in the presence of 10 mM extracellular CaCl2. Minimum fluorescence was determined following the depletion of external Ca^2+ with 5 mM EGTA.
To visualize the SOCE, cells were placed into the quartz cuvette and 0.5 EGTA was added just before the beginning of the recordings. To induce the SOCE, the cells were treated with 1 μM thapsigargin (TG) during 10 min in Ca^2+-free HBS to induce Ca^2+ release from the ER and the opening of SOCE channels. Then, 1 mM CaCl2 was added to measure the change in [Ca^2+]cyt subsequently to Ca^2+ influx. In the dose-response experiments, different concentrations of 2-APB and its analogs were added 30 s prior to Ca^2+ readdition.

IP3R1 = target: T1, IP3R1 (Mus musculus, UniProt P11881); assay: IP3-induced Ca2+ release (IICR) in permeabilized L15 fibroblasts overexpressing IP3R1; format: cell-based; conditions: permeabilized L15 fibroblasts
T1 construct: expressed in transfected cells; host or cells: L15 fibroblast cell line (gift of Katsuhiko Mikoshiba), saponin-permeabilized
T1 sequence (P11881 whole entry): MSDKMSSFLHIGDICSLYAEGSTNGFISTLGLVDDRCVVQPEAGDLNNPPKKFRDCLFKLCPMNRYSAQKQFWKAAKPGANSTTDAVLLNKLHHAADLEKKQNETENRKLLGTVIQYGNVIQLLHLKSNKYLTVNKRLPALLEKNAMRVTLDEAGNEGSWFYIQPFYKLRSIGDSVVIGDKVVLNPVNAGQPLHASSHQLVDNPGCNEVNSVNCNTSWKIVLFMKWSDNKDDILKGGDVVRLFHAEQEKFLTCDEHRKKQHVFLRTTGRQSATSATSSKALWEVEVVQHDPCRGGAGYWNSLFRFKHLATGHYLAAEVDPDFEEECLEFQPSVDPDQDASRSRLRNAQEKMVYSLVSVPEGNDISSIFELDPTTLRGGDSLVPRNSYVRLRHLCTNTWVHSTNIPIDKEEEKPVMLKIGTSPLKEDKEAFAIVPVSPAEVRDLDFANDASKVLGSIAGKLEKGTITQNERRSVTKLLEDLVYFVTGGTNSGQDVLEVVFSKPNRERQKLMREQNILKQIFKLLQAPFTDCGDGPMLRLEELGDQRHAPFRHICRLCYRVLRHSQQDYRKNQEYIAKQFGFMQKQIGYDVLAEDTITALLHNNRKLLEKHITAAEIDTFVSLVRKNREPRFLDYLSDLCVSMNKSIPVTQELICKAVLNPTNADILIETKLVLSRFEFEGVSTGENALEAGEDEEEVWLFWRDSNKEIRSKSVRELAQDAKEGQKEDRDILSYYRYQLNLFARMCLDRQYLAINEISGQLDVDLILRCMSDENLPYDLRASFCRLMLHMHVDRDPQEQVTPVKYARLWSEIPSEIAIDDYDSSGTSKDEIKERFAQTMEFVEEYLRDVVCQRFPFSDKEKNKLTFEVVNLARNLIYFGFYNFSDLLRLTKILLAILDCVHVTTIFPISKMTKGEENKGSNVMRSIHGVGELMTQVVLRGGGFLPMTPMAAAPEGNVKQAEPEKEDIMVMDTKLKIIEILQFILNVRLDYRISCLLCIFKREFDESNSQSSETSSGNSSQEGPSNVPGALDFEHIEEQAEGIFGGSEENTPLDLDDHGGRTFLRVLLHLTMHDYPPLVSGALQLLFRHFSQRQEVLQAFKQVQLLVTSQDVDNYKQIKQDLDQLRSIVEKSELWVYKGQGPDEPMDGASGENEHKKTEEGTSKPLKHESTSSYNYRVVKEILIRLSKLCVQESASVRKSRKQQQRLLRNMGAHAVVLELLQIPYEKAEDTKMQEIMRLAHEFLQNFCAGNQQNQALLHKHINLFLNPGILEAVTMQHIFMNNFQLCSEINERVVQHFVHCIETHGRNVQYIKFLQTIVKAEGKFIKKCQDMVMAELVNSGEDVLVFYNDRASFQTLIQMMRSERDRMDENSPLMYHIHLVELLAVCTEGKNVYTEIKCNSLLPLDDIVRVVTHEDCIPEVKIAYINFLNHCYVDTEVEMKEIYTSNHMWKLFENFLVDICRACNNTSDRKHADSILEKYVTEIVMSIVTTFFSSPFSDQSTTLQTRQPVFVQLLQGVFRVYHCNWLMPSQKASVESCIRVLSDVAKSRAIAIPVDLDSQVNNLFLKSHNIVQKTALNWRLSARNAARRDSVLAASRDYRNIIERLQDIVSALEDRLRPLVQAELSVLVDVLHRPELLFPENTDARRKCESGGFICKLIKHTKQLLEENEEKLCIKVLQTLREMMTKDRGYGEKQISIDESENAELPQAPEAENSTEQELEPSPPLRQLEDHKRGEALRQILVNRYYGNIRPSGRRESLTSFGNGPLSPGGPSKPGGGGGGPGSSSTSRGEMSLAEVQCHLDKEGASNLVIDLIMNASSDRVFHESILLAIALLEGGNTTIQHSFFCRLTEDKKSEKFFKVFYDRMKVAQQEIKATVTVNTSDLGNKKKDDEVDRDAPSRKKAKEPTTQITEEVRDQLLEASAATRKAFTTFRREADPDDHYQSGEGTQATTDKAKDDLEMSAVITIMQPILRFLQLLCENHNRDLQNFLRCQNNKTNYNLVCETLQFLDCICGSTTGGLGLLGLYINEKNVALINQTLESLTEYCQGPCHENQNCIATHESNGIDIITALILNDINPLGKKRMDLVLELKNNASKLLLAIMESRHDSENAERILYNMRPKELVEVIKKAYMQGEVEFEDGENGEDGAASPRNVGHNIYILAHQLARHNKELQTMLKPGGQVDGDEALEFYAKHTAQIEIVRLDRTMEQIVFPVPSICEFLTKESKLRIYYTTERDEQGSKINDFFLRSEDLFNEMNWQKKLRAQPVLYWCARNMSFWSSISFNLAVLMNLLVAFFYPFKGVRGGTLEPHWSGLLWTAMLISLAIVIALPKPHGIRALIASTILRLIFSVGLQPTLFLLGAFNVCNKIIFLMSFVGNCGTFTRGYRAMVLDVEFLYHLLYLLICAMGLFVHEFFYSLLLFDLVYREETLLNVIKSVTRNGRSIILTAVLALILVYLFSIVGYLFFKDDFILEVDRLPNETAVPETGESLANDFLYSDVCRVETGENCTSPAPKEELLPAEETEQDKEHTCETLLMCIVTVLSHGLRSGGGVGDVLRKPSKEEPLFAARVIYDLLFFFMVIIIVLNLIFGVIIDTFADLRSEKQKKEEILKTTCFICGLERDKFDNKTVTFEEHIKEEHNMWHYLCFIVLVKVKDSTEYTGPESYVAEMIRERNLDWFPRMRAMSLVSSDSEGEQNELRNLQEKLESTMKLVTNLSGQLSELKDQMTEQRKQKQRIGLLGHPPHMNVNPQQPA
Description: (§1) Measurements of SERCA-mediated ^45Ca^2+ store loading and IP3-dependent release from the ER Ca^2+ store were performed on permeabilized cells in unidirectional conditions. As this approach required the use of cells forming strongly adherent monolayers, we used L15 fibroblasts stably overexpressing IP3R1, similarly to our previous work.
(§2) The L15 fibroblasts stably overexpressing IP3R1 were seeded in gelatin-coated 12-well plates (Greiner, Frickenhausen, Germany) at a density of 60,000 cells per well. Unidirectional ^45Ca^2+ flux experiments on confluent cell monolayers were performed at 30 °C after membrane permeabilization with saponin (40 µg/mL), exactly as previously described. After permeabilization, the non-mitochondrial Ca^2+ stores were loaded for 45 min in 120 mM KCl, 30 mM imidazole–HCl (pH 6.8), 5 mM MgCl2, 5 mM ATP, 0.44 mM EGTA, 10 mM NaN3, and 150 nM free ^45Ca^2+ (28 µCi mL^−1). Subsequently, efflux was initiated by incubation in efflux medium (120 mM KCl, 1 mM EGTA, 10 µM TG and 30 mM imidazole–HCl pH 6.8). The latter medium was replaced every two minutes for 18 minutes. The exact amount of Ca^2+ at each time point is calculated by summing in retrograde order the amount of radioactivity remaining in the cells at the end of the efflux and the radioactivity collected during the successive time intervals. This allows to calculate the steady-state content of the ER Ca^2+ stores (indicative for the SERCA activity, after subtraction of the loading achieved in the presence of 2 µM TG) the basal leak rate of Ca^2+ out of the stores and the IP3-induced Ca^2+ release after addition of IP3 (0.7 µM). These various parameters were measured both in control conditions or in the presence of various 2-APB analogs as indicated. To assess the effect of the 2-APB analogs on the SERCA-mediated loading of the ER Ca^2+ stores, the analogs were added during the ^45Ca^2+-loading phase as described previously. […]

SERCA = SERCA (Mus musculus, UniProt O55143); assay: SERCA-mediated 45Ca2+ store loading in permeabilized L15 fibroblasts; format: cell-based; conditions: 100 µM; read-out: change of SERCA activity
Sequence of SERCA (O55143 whole entry): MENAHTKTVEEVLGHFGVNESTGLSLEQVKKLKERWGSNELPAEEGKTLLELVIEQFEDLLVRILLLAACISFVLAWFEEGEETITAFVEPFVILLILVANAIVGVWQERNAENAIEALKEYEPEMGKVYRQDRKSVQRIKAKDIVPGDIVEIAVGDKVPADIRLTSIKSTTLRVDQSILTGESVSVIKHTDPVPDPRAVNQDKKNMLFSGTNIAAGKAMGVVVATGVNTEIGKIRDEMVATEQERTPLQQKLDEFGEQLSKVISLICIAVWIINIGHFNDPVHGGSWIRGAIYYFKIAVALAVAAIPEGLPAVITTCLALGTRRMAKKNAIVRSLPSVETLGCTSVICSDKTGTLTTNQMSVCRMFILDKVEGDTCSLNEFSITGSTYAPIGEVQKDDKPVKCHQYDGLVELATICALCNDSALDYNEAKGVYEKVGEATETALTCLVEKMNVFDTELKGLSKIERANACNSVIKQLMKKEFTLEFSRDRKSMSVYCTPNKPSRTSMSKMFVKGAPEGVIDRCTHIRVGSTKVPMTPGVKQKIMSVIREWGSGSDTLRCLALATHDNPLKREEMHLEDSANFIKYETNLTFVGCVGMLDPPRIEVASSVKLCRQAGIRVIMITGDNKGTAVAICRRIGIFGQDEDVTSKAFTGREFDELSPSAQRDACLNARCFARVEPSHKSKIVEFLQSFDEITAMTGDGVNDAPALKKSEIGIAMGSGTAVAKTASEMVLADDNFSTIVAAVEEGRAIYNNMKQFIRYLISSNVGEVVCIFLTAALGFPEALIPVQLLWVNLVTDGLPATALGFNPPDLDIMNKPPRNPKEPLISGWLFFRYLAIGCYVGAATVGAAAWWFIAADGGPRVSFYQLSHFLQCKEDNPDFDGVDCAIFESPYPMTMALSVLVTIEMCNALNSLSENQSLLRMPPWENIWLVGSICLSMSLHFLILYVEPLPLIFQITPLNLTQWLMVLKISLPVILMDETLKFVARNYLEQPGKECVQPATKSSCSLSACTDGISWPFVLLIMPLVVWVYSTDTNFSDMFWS
Description: as §1
The L15 fibroblasts stably overexpressing IP3R1 were seeded in gelatin-coated 12-well plates (Greiner, Frickenhausen, Germany) at a density of 60,000 cells per well. Unidirectional ^45Ca^2+ flux experiments on confluent cell monolayers were performed at 30 °C after membrane permeabilization with saponin (40 µg/mL), exactly as previously described. After permeabilization, the non-mitochondrial Ca^2+ stores were loaded for 45 min in 120 mM KCl, 30 mM imidazole–HCl (pH 6.8), 5 mM MgCl2, 5 mM ATP, 0.44 mM EGTA, 10 mM NaN3, and 150 nM free ^45Ca^2+ (28 µCi mL^−1). Subsequently, efflux was initiated by incubation in efflux medium (120 mM KCl, 1 mM EGTA, 10 µM TG and 30 mM imidazole–HCl pH 6.8). The latter medium was replaced every two minutes for 18 minutes. The exact amount of Ca^2+ at each time point is calculated by summing in retrograde order the amount of radioactivity remaining in the cells at the end of the efflux and the radioactivity collected during the successive time intervals. This allows to calculate the steady-state content of the ER Ca^2+ stores (indicative for the SERCA activity, after subtraction of the loading achieved in the presence of 2 µM TG) the basal leak rate of Ca^2+ out of the stores and the IP3-induced Ca^2+ release after addition of IP3 (0.7 µM). These various parameters were measured both in control conditions or in the presence of various 2-APB analogs as indicated. To assess the effect of the 2-APB analogs on the SERCA-mediated loading of the ER Ca^2+ stores, the analogs were added during the ^45Ca^2+-loading phase as described previously. Obviously, compounds that strongly stimulated the basal Ca^2+ leak out of the stores (as P8) could not be investigated for their effect on SERCA activity (as Ca^2+ loading was already compromised by the increased leak) or on IP3-induced Ca^2+ release (as the decreased luminal Ca^2+ level impacted both the driving force for Ca^2+ release and the sensitivity of the IP3R).

[2] = test system: ER Ca2+ stores of L15 fibroblasts; assay: Basal Ca2+ leak from ER stores, unidirectional 45Ca2+ flux in permeabilized L15 fibroblasts; format: cell-based
Description: as §1
as §2, with “The latter medium was replaced every two minutes for 18 minutes.” left out, “This allows to calculate the steady-state content of the ER Ca^2+ stores (indicative for the SERCA activity, after subtraction of the loading achieved in the presence of 2 µM TG) the basal leak rate of Ca^2+ out of the stores and the IP3-induced Ca^2+ release after addition of IP3 (0.7 µM).” left out, “indicated.” for “indicated. To assess the effect of the 2-APB analogs on the SERCA-mediated loading of the ER Ca^2+ stores, the analogs were added during the ^45Ca^2+-loading phase as described previously.”

Jurkat cell SOCE [3] = conditions: leukocyte SOCE; cited from earlier work
[4] = Jurkat cells, read-out: Ki (µM), inhibition constant on SOCE
[5] = Jurkat cells, read-out: Ki (nM), inhibition constant on SOCE

2-((di-m-tolylboryl)oxy)ethanamine [P5]
Ki (Jurkat cell SOCE [1]; [4]): 2.1 ± 0.6 µM

2-((bis(3,5-dimethylphenyl)boryl)oxy)ethanamine [P10]
concentration of complete/full SOCE inhibition (Jurkat cell SOCE [1]; Jurkat cells): 3 µM
Ki (Jurkat cell SOCE [1]; [5]): 0.484 ± 0.116 µM
Ki (Jurkat cell SOCE [1]; [4]): ~0.5 µM

2-((di-p-tolylboryl)oxy)ethanamine [P3]
Ki (Jurkat cell SOCE [1]; [4]): 3.5 ± 0.6 µM

NCCOB(c1ccc2sccc2c1)c1ccc2sccc2c1 [P12, 2-(dibenzo[b]thiophen-5-ylboryloxy)ethanamine]
Ki (Jurkat cell SOCE [1]; [5]): 0.374 ± 0.096 µM

Cc1ccc([B-]2(c3ccc(C)c(Cl)c3)[NH2+]CCO2)cc1Cl [P15]
Ki (Jurkat cell SOCE [1]; [5]): 0.294 ± 0.074 µM
Ki (Jurkat cell SOCE [1]; [4]): ~0.3 µM

2-((bis(3-methoxyphenyl)boryl)oxy)ethanamine [P4]
maximal inhibition of SOCE (Jurkat cell SOCE [1]; Jurkat cells): ≈ 80%
Ki (Jurkat cell SOCE [1]; [4]): 75 ± 21 µM

CCCCc1ccc([B-]2(c3ccc(CCCC)cc3)[NH2+]CCO2)cc1 [P9]
inhibition of IP3R activity (IP3R1): did not significantly inhibit
Ki (Jurkat cell SOCE [1]; [5]): 0.641 ± 0.103 µM
inhibition at 100 µM (SERCA): 52 ± 3%

2-((bis(4-methoxyphenyl)boryl)oxy)ethanamine [P2]
Ki (Jurkat cell SOCE [1]; [4]): 3.5 ± 0.65 µM

2-((di(naphthalen-2-yl)boryl)oxy)ethanamine [P6]
Ki (Jurkat cell SOCE [1]; [5]): 0.275 ± 0.017 µM

CC1(C)c2ccccc2-c2ccc([B-]3(c4ccc5c(c4)C(C)(C)c4ccccc4-5)[NH2+]CCO3)cc21 [P17]
Ki (Jurkat cell SOCE [1]; [4]): > 100 µM
effect on SOCE amplitude (Jurkat cell SOCE [1]; concentrations >3 µM, higher concentrations disrupted the fluorescence): no effect

Fc1ccc([B-]2(c3ccc(F)cc3)[NH2+]CCO2)cc1 [P14]
Ki (Jurkat cell SOCE [1]; [4]): 5.4 ± 0.3 µM

2-((bis(3,4-dimethylphenyl)boryl)oxy)ethanamine [P7]
Ki (Jurkat cell SOCE [1]; [5]): 0.751 ± 0.097 µM

2-(((4-methoxyphenyl)(p-tolyl)boryl)oxy)ethanamine [P16]
Ki (Jurkat cell SOCE [1]; [4]): 3.1 ± 0.6 µM

2-((bis(4-(tert-butyl)phenyl)boryl)oxy)ethanamine [P8]
Ki (Jurkat cell SOCE [1]; [5]): 0.35 ± 0.04 µM
Ca2+ leak from the ER by an IP3-independent pathway [2]: strong Ca^2+ leak

((diphenylboryl)oxy)ethanamine [2-APB, reference compound]
concentration of full SOCE block (Jurkat cell SOCE [3]): 20 to 30 µM
SOCE potentiation, % of control [Ca2+]cyt increase (Jurkat cell SOCE [1]; 5 µM, Jurkat cells): > 200%
SOCE inhibition (Jurkat cell SOCE [1]; 50 µM, Jurkat cells): almost total inhibition

Clc1ccc([B-]2(c3ccc(Cl)cc3)[NH2+]CCO2)cc1 [P13]
Ki (Jurkat cell SOCE [1]; [4]): 1.8 ± 0.1 µM

— publication PMC7767506, “Synthesis and Characterization of Store-Operated Calcium Entry Inhibitors Active in the Submicromolar Range” (International Journal of Molecular Sciences, 2020)
